Laboratory results as given in US20250066345A1, “COMPOSITIONS AND METHODS OF USE TO TREAT 12-LIPOXYGENASE (12-LOX) MEDIATED DISEASES” (VERALOX THERAPEUTICS, priority 2021, published 2025).

Tests used:
[1] = target: 12-LOX (Homo sapiens (Human), UniProt P18054); assay: 12-LOX IC50 determination, UV-Vis assay with arachidonic acid substrate; format: biochemical; conditions: 30 nM 12-LOX, 50 μM AA, absorbance of 12-HPETE at 234 nm
Protocol: (§1) The compounds were evaluated for inhibition of 12-LOX, as well as selectivity by measuring inhibition against 15-LOX for some compounds, using a UV-Vis assay. Arachidonic acid (AA) was used as a substrate for 12-LOX and 15-LOX. ML355 was used as the control inhibitor for 12-LOX. ML351 (5-(Methylamino)-2-(1-naphthalenyl)-4-oxazolecarbonitrile) was used as the control inhibitor for 15-LOX.
(§2) Reaction buffers used for the lipoxygenase assay were as follows: 25 mM HEPES (pH 7.5), with 0.01% Triton X-100. 1 mM 12-HPETE or 1 mM 15-HPETE stock solution was prepared in 25 mM HEPES with 0.01% Triton X-100.
The standard curve of 12-HPETE was made by serial dilution of 0, 6.25, 12.5, 25, 50, 75 and 100 μM, and the final reaction volume in 96 Well Clear Flat Bottom UV-Transparent Microplate is 100 μL. The absorbance of the 12-HPETE at each concentration was measured at 234 nm.
(§3) IC50 values were obtained by determining the % inhibition at various inhibitor concentrations. The final concentrations of the control inhibitors and test compounds in the IC50 determination assay are 0, 0.03, 0.1, 0.3, 1, 3, 10 and 20 μM. The final concentration of DMSO in the assay is 0.05%.
12-LOX IC50 determination. The 12-LOX enzyme and AA were diluted in the HEPES buffer to 120 nM and 200 μM, respectively. Pre-incubation 50 μL of indicated test compounds and 25 μL 120 nM enzyme at room temperature for 5 min. The reaction is started by adding 25 μL 200 μM AA. After a short spin (1000 rpm, 15 s), incubate the reaction system for 5 min. The blank control was set by adding 25 μL HEPES to 50 μL of control inhibitor compound (MHL355) and 25 μL 200 μM AA. The final concentrations of 12-LOX enzyme and AA were 30 nM and 50 μM, respectively. The absorbance of the 12-HPETE at 234 nm was measured.
(§4) The IC50 value was calculated by using GraphPad Prism 8.0.2.
(§5) The IC50 values are calculated with remaining activity (%) and logarithm of inhibitor concentrations.
(§6) Remaining Activity (%)=OD value inhibitor/OD value vehicle×100

[2] = target: 15-LOX (Homo sapiens (Human), UniProt P16050); assay: 15-LOX IC50 determination, UV-Vis assay with arachidonic acid substrate (selectivity); format: biochemical; conditions: selectivity for 12-LOX over 15-LOX; 120 nM 15-LOX, AA substrate
Protocol: as §1, §2
The standard curve of 15-HPETE was made by serial dilution of 0, 3.125, 6.25, 12.5, 25, 50 and 100 μM, and the final reaction volume in 96 Well Clear Flat Bottom UV-Transparent Microplate is 100 μL. The absorbance of the […] at each concentration was measured at 234 nm.
as §3
15-LOX IC50 determination. The 15-LOX enzyme and AA were diluted in the HEPES buffer to 480 nM and 200 μM, respectively. Pre-incubation 50 μL of indicated test compounds and 25 μL 480 nM enzyme at room temperature for 5 min. The reaction is started by adding 25 μL 200 μM AA. After a short spin (1000 rpm, 15 s), incubate the reaction system for 3 min. The blank control was set by adding 25 μL HEPES to 50 μL of control inhibitor compound (MHL355) and 25 μL 200 μM AA. The final concentrations of 15-LOX enzyme and AA were 120 nM and 50 µM, respectively. The absorbance of the 15-HPETE at 234 nm was measured. The assay was performed in duplicate.
as §4, §5, §6

15-LOX, sequence (P16050 whole entry): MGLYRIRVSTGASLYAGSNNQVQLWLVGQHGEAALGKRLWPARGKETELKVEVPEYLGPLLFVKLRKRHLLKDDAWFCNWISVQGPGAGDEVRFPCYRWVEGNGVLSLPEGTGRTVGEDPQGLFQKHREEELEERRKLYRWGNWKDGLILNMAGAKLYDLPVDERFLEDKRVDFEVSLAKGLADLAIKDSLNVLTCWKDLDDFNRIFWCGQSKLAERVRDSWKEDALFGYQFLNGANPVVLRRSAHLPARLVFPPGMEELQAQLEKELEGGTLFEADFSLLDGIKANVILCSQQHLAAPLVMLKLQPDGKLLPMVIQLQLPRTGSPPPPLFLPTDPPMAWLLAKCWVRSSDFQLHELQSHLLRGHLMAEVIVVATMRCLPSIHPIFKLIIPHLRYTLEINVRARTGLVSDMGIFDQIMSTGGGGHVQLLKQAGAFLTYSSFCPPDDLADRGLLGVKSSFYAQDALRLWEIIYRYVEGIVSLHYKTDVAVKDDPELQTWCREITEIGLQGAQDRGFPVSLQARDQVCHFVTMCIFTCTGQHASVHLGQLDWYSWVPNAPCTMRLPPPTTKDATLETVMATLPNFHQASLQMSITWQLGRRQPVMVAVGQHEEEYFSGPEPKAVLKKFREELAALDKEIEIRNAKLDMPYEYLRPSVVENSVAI
12-LOX, sequence (P18054 whole entry): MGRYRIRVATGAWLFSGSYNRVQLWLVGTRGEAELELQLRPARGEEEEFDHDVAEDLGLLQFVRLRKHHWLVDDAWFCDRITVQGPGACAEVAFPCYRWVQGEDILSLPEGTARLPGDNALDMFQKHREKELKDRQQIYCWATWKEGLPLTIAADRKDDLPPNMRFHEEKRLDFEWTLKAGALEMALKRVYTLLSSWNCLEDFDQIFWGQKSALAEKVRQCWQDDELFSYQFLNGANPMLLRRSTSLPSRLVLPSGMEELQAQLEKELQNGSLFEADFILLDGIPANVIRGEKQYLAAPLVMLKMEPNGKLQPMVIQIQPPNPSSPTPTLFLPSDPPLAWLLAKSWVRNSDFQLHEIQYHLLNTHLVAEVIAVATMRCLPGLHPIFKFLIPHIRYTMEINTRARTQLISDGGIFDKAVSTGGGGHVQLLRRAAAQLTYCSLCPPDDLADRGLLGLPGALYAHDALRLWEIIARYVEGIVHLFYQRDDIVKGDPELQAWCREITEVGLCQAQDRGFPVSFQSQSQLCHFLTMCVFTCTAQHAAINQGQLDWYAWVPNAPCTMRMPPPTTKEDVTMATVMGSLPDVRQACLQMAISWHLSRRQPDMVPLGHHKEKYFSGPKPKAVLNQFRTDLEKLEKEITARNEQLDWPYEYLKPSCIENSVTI

Structure (SMILES)	IC50 [1]	Selectivity over 15-LOX [2]
COc1cccc(CNc2cnc(S(=O)(=O)Nc3nc(-c4ccc(Cl)c(F)c4)cs3)c(C)c2)c1O [Compound I-40]	< 250 nM	>50-fold
COc1cccc(CNc2ccc(S(=O)(=O)Nc3nc4ccccc4s3)nc2)c1O [Compound I-10]	> 1000 nM	–
COc1cccc(CNc2ccc(S(=O)(=O)Nc3nc(-c4ccc(F)c(F)c4)c(F)s3)nc2)c1O [Compound I-6]	< 250 nM	>50-fold
[2H]C([2H])([2H])Oc1cccc(CNc2cnc(S(=O)(=O)Nc3nc(-c4ccc(F)c(F)c4)c(F)s3)c(C)c2)c1O [Compound I-50]	250 to 1000 nM	>50-fold
COc1cccc(CNc2cnc(S(=O)(=O)Nc3nc(-c4ccc(F)c(Cl)c4)cs3)c(C)c2)c1O [Compound I-41]	< 250 nM	>50-fold
COc1cccc(CNc2cnc(S(=O)(=O)Nc3nc(-c4ccc(F)c(Cl)c4)c(F)s3)c(C3CC3)c2)c1O [Compound I-43]	> 1000 nM	<20-fold
COc1cccc(CNc2cnc(S(=O)(=O)Nc3nc(-c4ccc(F)c(Cl)c4)c(F)s3)c(C(F)(F)F)c2)c1O [Compound I-17]	< 250 nM	>20-fold
COc1cccc(CNc2cnc(S(=O)(=O)Nc3nc(-c4ccc(F)c(F)c4)c(F)s3)c(C(F)(F)F)c2)c1O [Compound I-22]	> 1000 nM	<10-fold
COc1cccc(CNc2ccc(S(=O)(=O)Nc3nc(-c4ccc(Cl)c(F)c4)cs3)nc2)c1O [Compound I-8, N-(4-(4-chloro-3-fluorophenyl)thiazol-2-yl)-5-((2-hydroxy-3-methoxybenzyl)amino)pyridine-2-sulfonamide]	< 250 nM	>50-fold
[2H]C([2H])([2H])Oc1cccc(CNc2cnc(S(=O)(=O)Nc3nc(-c4ccc(Cl)c(F)c4)c(F)s3)c(C([2H])([2H])[2H])c2)c1O [Compound I-47]	> 1000 nM	<20-fold
[2H]C([2H])([2H])Oc1cccc(CNc2cnc(S(=O)(=O)Nc3nc(-c4ccc(F)c(Cl)c4)c(F)s3)c(C)c2)c1O [Compound I-51]	< 250 nM	>50-fold
COc1cccc(CNc2ccc(S(=O)(=O)Nc3nc(-c4ccc(F)c(Cl)c4)cs3)nc2)c1O [Compound I-9]	250 to 1000 nM	>50-fold
COc1cccc(CNc2ccc(S(=O)(=O)Nc3nc(-c4ccc(C(C)C)cc4)c(F)s3)nc2)c1O [Compound I-3]	< 250 nM	>20-fold
COc1cccc(CN(C)c2ccc(S(=O)(=O)Nc3nc(-c4ccc(F)c(F)c4)c(F)s3)nc2)c1O [Compound I-11]	250 to 1000 nM	>20-fold
COc1cccc(CN(C)c2cnc(S(=O)(=O)Nc3nc(-c4ccc(F)c(F)c4)cs3)c(C)c2)c1O [Compound I-19]	> 1000 nM	–
COc1cccc(CNc2cnc(S(=O)(=O)Nc3nc(-c4ccc(F)c(Cl)c4)c(F)s3)cc2C)c1O [Compound I-15]	> 1000 nM	<10-fold
COc1cccc(CNc2ccc(S(=O)(=O)Nc3nc(-c4ccc(C(C)C)cc4)cs3)nc2)c1O [Compound I-4]	< 250 nM	>50-fold
Cc1cc(NCc2cccc(OC(F)(F)F)c2O)cnc1S(=O)(=O)Nc1nc(-c2ccc(F)c(Cl)c2)c(F)s1 [Compound I-45]	> 1000 nM	<20-fold

Structure (SMILES)	IC50 [1]	Selectivity over 15-LOX [2]
COc1cccc(CNc2ccc(S(=O)(=O)Nc3nc(-c4ccc(C5CC5)cc4)cs3)nc2)c1O [Compound I-5]	< 250 nM	>50-fold
COc1cccc(CNc2cnc(S(=O)(=O)Nc3nc(-c4ccc(F)c(F)c4)c(F)s3)c(C)c2)c1O [Compound I-18, N-(4-(3,4-difluorophenyl)-5-fluorothiazol-2-yl)-5-((2-hydroxy-3-methoxybenzyl)amino)-3-methylpyridine-2-sulfonamide]	< 250 nM	>50-fold
[2H]C([2H])([2H])Oc1cccc(CNc2ccc(S(=O)(=O)Nc3nc(-c4ccc(Cl)c(F)c4)c(F)s3)nc2)c1O [Compound I-49]	< 250 nM	>50-fold
COc1cccc(CNc2ccc(S(=O)(=O)Nc3nc(-c4ccc(Cl)c(F)c4)c(F)s3)nc2)c1O [Compound I-2]	< 250 nM	>50-fold
COc1cccc(CNc2cnc(S(=O)(=O)Nc3nc(-c4ccc(F)c(F)c4)cs3)c(C)c2)c1O [Compound I-39]	< 250 nM	>50-fold
COc1cccc(CNc2ccc(S(=O)(=O)Nc3nc(-c4ccc(C(F)(F)F)c(F)c4)cs3)nc2)c1O [Compound I-12]	< 250 nM	>50-fold
CCOc1cccc(CNc2cnc(S(=O)(=O)Nc3nc(-c4ccc(F)c(Cl)c4)c(F)s3)c(C)c2)c1O [Compound I-46]	> 1000 nM	<20-fold
COc1cccc(CNc2ccc(S(=O)(=O)Nc3nc(-c4ccc(C(F)(F)F)c(F)c4)c(F)s3)nc2)c1O [Compound I-25]	< 250 nM	>50-fold
COc1cccc(CNc2ccc(S(=O)(=O)Nc3nc4c(ccc5ccccc54)s3)nc2)c1O [Compound I-13]	< 250 nM	>50-fold
COc1cccc(CNc2ccc(S(=O)(=O)Nc3nc(-c4ccc(F)c(Cl)c4)c(F)s3)nc2C)c1O [Compound I-14]	250 to 1000 nM	~10-fold
COc1cccc(CNc2ccc(S(=O)(=O)Nc3nc(-c4ccc(F)c(Cl)c4)c(F)s3)nc2)c1O [Compound I-1]	< 250 nM	>50-fold
COc1cccc(CNc2cnc(S(=O)(=O)Nc3nc(-c4ccc(Cl)c(F)c4)c(F)s3)c(C)c2)c1O [Compound I-23]	< 250 nM	>50-fold
COc1cccc(CNc2cnc(S(=O)(=O)Nc3nc(-c4ccc(F)c(Cl)c4)c(F)s3)c(-c3ccccc3)c2)c1O [Compound I-42]	< 250 nM	>50-fold
[2H]C([2H])([2H])Oc1cccc(CNc2cnc(S(=O)(=O)Nc3nc(-c4ccc(Cl)c(F)c4)c(F)s3)c(C)c2)c1O [Compound I-48]	< 250 nM	>50-fold
COc1cccc(CNc2ccc(S(=O)(=O)Nc3nc(-c4ccc(F)c(Cl)c4)c(CO)s3)nc2)c1O [Compound I-24]	< 250 nM	>50-fold
COc1cccc(CNc2cnc(S(=O)(=O)Nc3nc(-c4ccc(F)c(Cl)c4)c(F)s3)c(C)c2)c1O [Compound I-16]	< 250 nM	>50-fold
COc1cccc(CNc2ccc(S(=O)(=O)Nc3nc(-c4ccc(F)c(F)c4)cs3)nc2)c1O [Compound I-7]	< 250 nM	>50-fold
